We go through 1 compound from patent US20040086904A1, “Screening assay for cotranslational translocation interfering compounds” (priority 2001, published 2004).

For assay [1], the system named is VCAMSP-SEAP construct. Put plainly: SP-SEAP assay, secretion of SEAP into the medium. Type of assay: cell-based. Particulars: transiently transfected cells, increasing concentrations. The protocol: (§1) Cell Culture and Transient Transfections HEK293 cells are maintained in Dulbeccos' modified Eagle's medium (DMEM, Gibco-BRL), supplemented with 10% heat-inactivated fetal calf serum (FCS, Bio-Whittaker) and 100 Units/ml each of penicillin (BC) and streptomycin (Gibco-BRL) at 37° in a 5% humidified CO2 incubator. HUVEC cells are cultured in endothelial cell basal medium (EBM, Clonetics Corp.) supplemented with 10% FCS, 5×10^−4 M dibutyryl cAMP (Sigma), 1 μg/ml hydrocortisone (Sigma) and 10 ng/ml human EGF (Boehringer) at 37° in a 5% humidified CO2 incubator. VCAM-1 production is stimulated by incubation with 100U/ml TNF-α for ca. 8 hours. For transient transfection, HEK293 cells are seeded into 6-well or 24-well cell culture dishes at a density of 6×10^5 cells/well or 1.5×10^5 cells/well, respectively, the day prior to transfection and grown to 50-70% confluency. Cells are transfected with 2 μg or 1 μg of plasmid DNA, respectively, using the SuperFect reagent (Qiagen) according to the supplier's recommendations. Cells are incubated either without or with addition of a candidate compound, respectively, at concentrations indicated for ca. 24 to 48 hours. […]
(§2) Human placental SEAP levels in cell supernatants are determined using either a fluorescence-based assay or an assay that measures light absorbance at 405 nm accompanying hydrolysis of pNPP according to the method described (Berger et al., 1988). […] 20 μl of 120 mM pNPP in 1x SEAP buffer prewarmed to 37° is added and the change in absorbance at 37° is plotted. […] For determination of SEAP levels by a fluorescence-based assay the Atto Phos AP Fluorescent Substrate Sysem (Promega) is used according to the manufacturer's instructions.
(§3) For the establishment and as a first proof of principle of an assay (system) according to the present invention, SP-reporter gene fusion constructs are generated using the SP of compound sensitive and insensitive proteins, respectively, and the mature sequence of placental SEAP as the reporter gene (see FIG. 5). […] Finally, secretion of the reporter SEAP protein into the medium is determined. […]

The test system of assay [2] is VCAMSP(15+4)-SEAP construct. Kind of assay: SP-SEAP assay, secretion of SEAP into the medium. Particulars: transiently transfected cells, increasing concentrations, dose-dependent. Type of assay: cell-based. The protocol: as §1, §2, §3
The test system of assay [3] is E-SelectinSP-SEAP fusion protein. Put plainly: SP-SEAP assay, secretion of SEAP into the medium. Particulars: transiently transfected cells, increasing concentrations. Type of assay: cell-based. The protocol:
as §1, §2, §3

Assay [4] addresses T1, ICAM-1 (Homo sapiens, UniProt P05362).
T1 construct: Full length cDNAs of the adhesion molecules VCAM-1, ICAM-1 and E-Selectin are transcribed and translated; host or cells: cell-free: coupled TNT reticulocyte lysate (Promega) with dog pancreatic microsomes
Kind of assay: Cell-free translation/translocation assay, ICAM-1. Type of assay: biochemical. Particulars: reticulocyte lysate with dog pancreatic microsomes. From the text: Proteins are radioactively labelled and visualised by autoradlography.

T1 sequence (P05362 28-532): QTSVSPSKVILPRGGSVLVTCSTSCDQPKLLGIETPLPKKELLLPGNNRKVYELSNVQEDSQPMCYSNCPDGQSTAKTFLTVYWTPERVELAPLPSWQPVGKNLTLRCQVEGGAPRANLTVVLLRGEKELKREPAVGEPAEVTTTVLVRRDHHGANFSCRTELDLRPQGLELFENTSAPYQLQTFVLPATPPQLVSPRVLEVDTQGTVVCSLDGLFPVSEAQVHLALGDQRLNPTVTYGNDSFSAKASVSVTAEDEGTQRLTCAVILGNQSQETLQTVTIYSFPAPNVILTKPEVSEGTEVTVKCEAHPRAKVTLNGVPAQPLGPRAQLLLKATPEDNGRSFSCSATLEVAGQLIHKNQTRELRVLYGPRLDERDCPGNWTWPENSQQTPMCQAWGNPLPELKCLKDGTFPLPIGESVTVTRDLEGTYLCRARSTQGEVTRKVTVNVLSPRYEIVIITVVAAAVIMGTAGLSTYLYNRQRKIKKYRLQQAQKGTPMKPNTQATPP

For `CCCCC(C)CC1NC(=O)C(Cc2cn(OC)c3ccccc23)N(C)C(=O)C(CC(C)C)NC(=O)C(CC(C)C)N(C)C(=O)C(CC(C)CCCC)NC(=O)C(CCC(=O)OCCC)OC(=O)C(C)N(C)C1=O` (stereo not shown) [CP], the “sensitivity of SEAP secretion to the compound” value is “slight sensitivity” in assay [1], “full sensitivity” in assay [2] and “compound-insensitive” in assay [3]. Besides, in assay [4], the “concentration needed to inhibit translocation of ICAM-1, relative to VCAM-1” value lay within 20 to 30 times.
